From paper PMC2801581 (Journal of medicinal chemistry, 2009)
Read-outs that look alike come from different tables or passages of the source.

How the values were obtained:
Format in all cases: biochemical
LYP = molecular target: T1, LYP (Homo sapiens, UniProt Q9Y2R2); experiment: LYP inhibition assay with fluorogenic substrates; details: for LYP versus PTP-PEST inhibition in comparative library screen: nominal 5 µM, DiFMUP and peptide 1; for IC50: pH 6.5; for selectivity for LYP over PTP-PEST in dose-response screens: in vitro, Table 1
T1 sequence (Q9Y2R2 2-309): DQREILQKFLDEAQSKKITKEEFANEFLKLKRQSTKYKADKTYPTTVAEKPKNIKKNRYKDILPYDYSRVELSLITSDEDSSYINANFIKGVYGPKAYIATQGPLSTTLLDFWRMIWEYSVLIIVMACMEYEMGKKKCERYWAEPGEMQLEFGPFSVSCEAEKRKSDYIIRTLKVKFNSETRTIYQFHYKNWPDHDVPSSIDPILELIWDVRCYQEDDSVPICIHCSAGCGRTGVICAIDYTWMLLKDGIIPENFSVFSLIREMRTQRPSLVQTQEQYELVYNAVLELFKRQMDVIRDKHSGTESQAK

PTP-PEST = molecular target: T2, PTP-PEST (Homo sapiens, UniProt Q05209); experiment: PTP-PEST inhibition assay with fluorogenic substrates; details: pH 6.5
T2 sequence (Q05209 2-323): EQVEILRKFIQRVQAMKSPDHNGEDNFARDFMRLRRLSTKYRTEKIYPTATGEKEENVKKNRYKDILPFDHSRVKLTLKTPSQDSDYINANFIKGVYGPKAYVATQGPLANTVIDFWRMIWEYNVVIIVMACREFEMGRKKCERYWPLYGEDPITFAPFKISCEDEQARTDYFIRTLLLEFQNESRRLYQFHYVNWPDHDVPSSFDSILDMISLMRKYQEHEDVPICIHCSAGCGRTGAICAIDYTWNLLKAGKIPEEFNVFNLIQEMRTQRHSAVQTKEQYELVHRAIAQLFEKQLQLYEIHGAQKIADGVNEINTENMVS

HePTP = molecular target: T3, HePTP (Homo sapiens, UniProt P35236); experiment: HePTP counterscreen; details: read-out: IC50 HePTP (DiFMUP)
T3 sequence (P35236 65-360): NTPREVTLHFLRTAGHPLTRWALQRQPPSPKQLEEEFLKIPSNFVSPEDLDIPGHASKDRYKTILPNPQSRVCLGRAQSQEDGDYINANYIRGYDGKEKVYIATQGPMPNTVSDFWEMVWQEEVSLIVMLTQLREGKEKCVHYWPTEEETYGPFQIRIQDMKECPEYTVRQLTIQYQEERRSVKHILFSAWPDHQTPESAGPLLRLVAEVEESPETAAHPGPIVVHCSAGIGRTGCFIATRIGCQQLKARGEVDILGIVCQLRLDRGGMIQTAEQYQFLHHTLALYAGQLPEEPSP

CD45 = molecular target: T4, CD45 (Homo sapiens, UniProt P08575); experiment: CD45 counterscreen; details: read-out: IC50 CD45 (DiFMUP)
T4 sequence (P08575 653-912 limits assumed): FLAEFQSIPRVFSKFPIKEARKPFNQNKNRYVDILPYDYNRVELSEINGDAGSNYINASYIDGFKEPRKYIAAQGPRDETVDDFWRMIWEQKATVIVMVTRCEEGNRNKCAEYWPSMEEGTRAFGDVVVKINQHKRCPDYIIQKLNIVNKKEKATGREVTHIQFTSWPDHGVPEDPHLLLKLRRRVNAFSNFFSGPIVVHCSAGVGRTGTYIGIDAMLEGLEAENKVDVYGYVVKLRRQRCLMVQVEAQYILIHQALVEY

PTP1B = molecular target: T5, PTP1B (Homo sapiens, UniProt P18031); experiment: PTP1B inhibition assay with fluorogenic substrates; details: for IC50: pH 7.1
T5 sequence (P18031 3-277 limits assumed): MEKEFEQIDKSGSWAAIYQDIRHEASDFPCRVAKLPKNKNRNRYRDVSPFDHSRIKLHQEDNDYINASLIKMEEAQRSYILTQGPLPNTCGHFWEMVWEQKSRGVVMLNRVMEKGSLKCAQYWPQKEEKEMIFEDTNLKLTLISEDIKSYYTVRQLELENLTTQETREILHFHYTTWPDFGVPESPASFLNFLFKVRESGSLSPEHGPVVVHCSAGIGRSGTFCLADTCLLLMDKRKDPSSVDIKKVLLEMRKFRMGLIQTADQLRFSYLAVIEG

TCPTP = molecular target: T6, TCPTP (Homo sapiens, UniProt P17706); experiment: TCPTP inhibition assay with fluorogenic substrates; details: for IC50: pH 7.1
T6 sequence (P17706 5-275 limits assumed): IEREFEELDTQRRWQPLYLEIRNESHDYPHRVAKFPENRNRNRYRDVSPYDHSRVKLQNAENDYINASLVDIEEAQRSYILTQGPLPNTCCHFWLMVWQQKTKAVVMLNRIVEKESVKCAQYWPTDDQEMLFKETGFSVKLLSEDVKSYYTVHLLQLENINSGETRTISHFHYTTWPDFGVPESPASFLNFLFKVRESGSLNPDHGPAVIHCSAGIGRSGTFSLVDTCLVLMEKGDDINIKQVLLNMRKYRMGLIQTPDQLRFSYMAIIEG

[1] = read-out: IC50 LYP (DiFMUP), substrate DiFMUP 1.5 µM
[2] = read-out: IC50 LYP (peptide 1), substrate peptide 1 10 µM
[3] = read-out: IC50 PEST (peptide 1)

SMILES: O=S(=O)(O)c1cccc([P+]([Au-][Cl])(c2ccccc2)c2ccccc2)c1 [Compound 12, 3-(Diphenylphosphino)benzenesulfonic acid-Au(I)-Cl]
- LYP versus PTP-PEST inhibition in comparative library screen (LYP): appear LYP-selective when DiFMUP is used in the assay, but not when the peptide is used
- IC50 (LYP; [1]): 2 ± 0.1 µM
- IC50 (LYP; [2]): 1.9 ± 0.2 µM
- selectivity for LYP over PTP-PEST (LYP; with DiFMUP as substrate): 35 fold
- selectivity for LYP over PTP-PEST (LYP; with peptide 1 as substrate): 2 fold
- IC50 (PTP-PEST; read-out: IC50 PEST (DiFMUP)): 70 ± 2 µM
- IC50 (PTP-PEST; [3]): 4 ± 0.2 µM
- IC50 (HePTP): 40 ± 1 µM
- IC50 (CD45): > 70 µM

SMILES: CP(C)c1ccccc1.[Cl][Au] [Compound 13, Dimethylphenylphosphine-Au(I)-Cl]
- selectivity for LYP over PTP-PEST in dose-response screens (LYP): selective for LYP over the ~ 70% identical PTP-PEST
- LYP versus PTP-PEST inhibition in comparative library screen (LYP): more potent inhibitors of LYP than PTP-PEST regardless of the substrate used
- IC50 (LYP; [1]): 3.5 ± 0.3 µM
- IC50 (LYP; [2]): 2 ± 0.3 µM
- IC50 (PTP-PEST; read-out: IC50 PEST (DiFMUP), substrate DiFMUP 1.5 µM): 70 ± 2 µM
- IC50 (PTP-PEST; read-out: IC50 PEST (peptide 1), substrate peptide 1 10 µM): 30 ± 2 µM
- IC50 (HePTP; substrate DiFMUP): > 50 µM
- IC50 (CD45; substrate DiFMUP): > 100 µM

SMILES: O=S(=O)(O)c1ccc([P+]([Au-][Cl])(c2ccccc2)c2ccc(S(=O)(=O)O)cc2)cc1 [Compound 18, 4,4′-(Phenylphosphinidene)bis(benzenesulfonic acid)-Au(I)-Cl]
- selectivity for LYP over PTP-PEST in dose-response screens (LYP): selective for LYP over the ~ 70% identical PTP-PEST
- IC50 (LYP; [1]): 2 ± 0.1 µM
- IC50 (LYP; [2]): 0.85 ± 0.05 µM
- IC50 (PTP-PEST; read-out: IC50 PEST (DiFMUP)): 39 ± 1 µM
- IC50 (PTP-PEST; [3]): 10 ± 2 µM
- IC50 (HePTP): 16 ± 2 µM
- IC50 (CD45): 26 ± 1 µM
- selectivity between PTP1B and TCPTP in dose-response screens (PTP1B): no significant selectivity with DiFMUP
- IC50 (PTP1B; read-out: IC50 PTP1B (DiFMUP)): 16 ± 1 µM
- IC50 (PTP1B; read-out: IC50 PTP1B (peptide 2)): 15 ± 1 µM
- TCPTP versus PTP1B inhibition in comparative library screen (TCPTP): slightly TCPTP selective with peptide 2
- selectivity for TCPTP (over PTP1B) (TCPTP): approximately 2 fold
- IC50 (TCPTP; read-out: IC50 TCPTP (DiFMUP)): 16 ± 1 µM
- IC50 (TCPTP; read-out: IC50 TCPTP (peptide 2)): 7.5 ± 0.3 µM

SMILES: [Cl][Au][PH](c1ccco1)(c1ccco1)c1ccco1 [Compound 19, Tri-2-furylphosphine-Au(I)-Cl]
- selectivity between PTP1B and TCPTP in dose-response screens (PTP1B; Table 2): selective for PTP1B with both substrates
- PTP1B inhibition in library screen, peptide 2 versus DiFMUP (PTP1B; nominal 5 µM): inhibit PTP1B better with peptide 2 than with DiFMUP
- IC50 (PTP1B; read-out: IC50 PTP1B (DiFMUP), substrate DiFMUP 1.5 µM): 0.33 ± 0.02 µM
- IC50 (PTP1B; read-out: IC50 PTP1B (peptide 2), substrate peptide 2 60 µM): 0.2 ± 0.02 µM
- IC50 (TCPTP; read-out: IC50 TCPTP (DiFMUP), substrate DiFMUP 1.5 µM): 2.4 ± 0.2 µM
- IC50 (TCPTP; read-out: IC50 TCPTP (peptide 2), substrate peptide 2 60 µM): 2.2 ± 0.3 µM
